In series [1] the test system is neutrophils from explanted failing human hearts. The experiment in a line: hNPPFC uptake by neutrophils from explanted human hearts, flow cytometry. In kind it is cell-based. The settings on record: 10 µl hNPPFCs, 30 min, 37 °C. How it is done:
During orthotopic heart-transplant surgery in patients suffering from terminal heart failure, a tissue specimen of about ~5 g was excised from the apex of the failing heart immediately after explantation. Tissues were immediately transferred to iced BIOPS buffer as described previously. For subsequent isolation of immune cells, heart samples were cut into small pieces and digested with the Multi Tissue Dissociation Kit 2 (Miltenyi; ‘adult rat heart’ protocol) by incubating for 40 min at 37 °C with the specified enzyme mix using the 37C_Multi_G program by gentleMACS. Afterward, 7.5 ml DMEM with 20% FCS was added to stop enzymatic digestion. The sample was applied to a 70-µm cell filter and washed with 3 ml DMEM, followed by centrifugation for 5 min at 300g. The supernatant was discarded, and cells were resuspended in 1 ml DMEM and incubated with 10 µl ^hNPPFCs for 30 min at 37 °C on a vertical shaker. Afterward, cells were washed twice with MACS buffer and stained for CD45, CD11b and CD66b. DAPI staining was performed for exclusion of dead cells. The uptake of ^hNPPFCs into neutrophils (CD45^+CD11b^+CD66b^+) was determined by flow cytometry.
(Flow cytometry measures light scatter and fluorescence of single cells or particles in a stream.)

The nature of series [2]: Dynamic light scattering and ζ potential of PFCs. In kind it is physicochemical. The settings on record: panel B raw data, single replicates #1-#6. As for the experimental part:
Dynamic light scattering and the ζ potential were measured as described previously[9],[32] at 25 °C using a Nanotrac Wave II analyzer (Microtrac) driven by Microtrac FLEX Software 3.4.
Extended Data Fig. 8 Physicochemical properties and cellular uptake of ^hNPPFCs. a, Cellular uptake of ^hNPPFCs by human monocyte subsets and neutrophils: Human immune cells isolated from the blood of healthy volunteers were incubated with ^hNPPFCs. Subsequently, cells were stained with CD11b, CD14 and CD16 to differentiate between neutrophils (red), classical monocytes (gray) and non-classical monocytes (blue) and the cells were analyzed by flow cytometry. The cellular uptake of ^hNPPFCs was determined under unstimulated conditions (top) and after treatment with 1 µg/ml LPS (bottom). b, Physicochemical properties of the generated nanotracers: Characterization of size, size distribution and ζ potential of ^MalPFCs and targeting PFCs (^hNPPFCs, ^ConPFCs) by dynamic light scattering (DLS). The rhodamine fluorescence signal of the PCS was determined by IVIS imaging and the ^19F content by ^19F MRI. c-e, Cryo transmission electron microscopy of the generated nanotracers: c, Cryo transmission electron microscopy (cryo-TEM) of ^hNPPFCs and ^ConPFCs. Graphs: The diameter of the PFCs was determined manually from three images categorized into 25 nm groups. […] Data are derived from three images for ^hNPPFCs and ^ConPFCs each. d, Box plot (box and whiskers; min to max) of the diameter of ^ConPFCs/^hNPPFCs calculated from cryo-TEM images. e, Relative amount of liposomes (%) in individual cryo-TEM images. The number of PFCs and liposomes was manually determined (n = 4/5 images). Red arrows in the cryo-TEM images indicate liposomes. Data are mean values ± SD of n = 5-6 (a), n = 3-6 (b), n = 3 (c), n = 3 (d) and n = 6 (e) independent experiments; *** = p < 0.001, verified by one-way ANOVA (a). Source data

For series [3], the system named is circulating lymphocytes, monocytes and neutrophils. As to the kind of experiment: In vivo mNPPFC uptake by circulating immune cells 1 h after injection (Matrigel-LPS or PBS). The arrangement: species or system mouse; in vivo uptake by circulating lymphocytes, Ctrl, raw data / in vivo uptake by circulating lymphocytes, LPS, raw data / in vivo uptake by circulating monocytes, Ctrl, raw data / in vivo uptake by circulating monocytes, LPS, raw data / in vivo uptake by circulating neutrophils, Ctrl, raw data / in vivo uptake by circulating neutrophils, LPS, raw data: unit not given here. As for the experimental part: To induce defined inflammatory foci, we adopted a recently developed model of localized subcutaneous inflammation. To this end, ice-cold Matrigel (Corning) was doped with LPS (1 µg µl^−1; Salmonella typhimurium, Sigma-Aldrich) and subcutaneously (s.c.) implanted into the neck of the mice. Twenty-four hours after implanting the plug, neutrophils were isolated from the blood and incubated ex vivo with ^mNPPFCs or ^ConPFCs. In separate experiments, 24 h after implantation, ^mNPPFCs or ^ConPFCs were injected intravenously, and immune cells were isolated from the blood. In further experiments, 1 d after plug injection, mice received 1 mmol per kg BW ^mNPPFCs, and, 24 h later, the bone marrow was analyzed by ^1H/^19F MRI. Thereafter, mice were killed, and neutrophils were isolated from the bone marrow for determination of cell numbers. In each case, immune cells were analyzed by flow cytometry.
Mice were kept in anesthesia (1.5% isoflurane) on a warming plate, and 1 mmol per kg BW ^mNPPFCs or ^ConPFCs were injected i.v. into the tail vein. One hour after injection, blood was collected from the vena cava, and immune cells were isolated. For in vivo uptake studies in the bone marrow, mice were treated as described above and killed 2 h later to isolate neutrophils from the bone marrow and analyzed by flow cytometry.

Where [4] appears, read: mouse, Ctrl (PBS), 1 h after injection, single animals #1-#5.
The mark [5] stands for this setting: mouse, Matrigel-LPS, 1 h after injection, single animals #1-#3.

Several values for one entry are separate records, joined by “and”; a condition that tells them apart may be missing. Identical values can stand only once. Where no end group is shown, it is not given here. Side-chain parts run from the residue outwards. rhodamine‑labelled PEGylated perfluoro‑15‑crown‑5 ether nanoemulsion = not defined here; carboxyfluorescein = N-terminal fluorescence label (CF)

The values below come from article PMC11357992, “Non-invasive mapping of systemic neutrophil dynamics upon cardiovascular injury” (Nature Cardiovascular Research, 2023).

For the substance “hNPPFCs: PEGylated rhodamine-labeled perfluorocarbon nanoemulsion coupled with human neutrophil-specific peptide hNP (carboxyfluorescein-DLVTSKLQVGGGC; also: C-terminal Cys coupled via maleimide-PEG2000-DSPE to rhodamine-labelled perfluorocarbon nanoemulsion)”, in series [1], the “labeling of neutrophils freshly isolated from explanted failing human hearts” value was “could be labeled”. Moreover, in series [2] (dynamic light scattering), the PDI is 0.08 and 0.07; the Size was 91.7 and 97.8 and 100.7 and 101.3 and 102.8 and 95.3. Moreover, the zeta potential in series [2] was -30.64 and -34.35 and -35.76 and -32.06 and -35.94 and -33.07.
As to “mNPPFCs: PEGylated rhodamine-labeled perfluoro-15-crown-5 ether nanoemulsion (maleimide PFCs) coupled with murine neutrophil-specific peptide mNP (carboxyfluorescein-DFYKPMPNLRITGGGC([maleimide‑PEG2000‑DSPE-rhodamine‑labelled PEGylated perfluoro‑15‑crown‑5 ether nanoemulsion]); reading uncertain; also: printed as DFYKPMPNLRIT-GGG-C)”, the “incorporation into circulating neutrophils from LPS-challenged versus healthy mice” value in series [3] (1 h after intravenous application) is reported as “much stronger”. Moreover, in series [3] (setting [4]), the “in vivo uptake by circulating lymphocytes, Ctrl, raw data” value was 51.1 and 39.2 and 30.6 and 43.1 and 40.6; the “in vivo uptake by circulating monocytes, Ctrl, raw data” value was 176 and 127 and 129 and 184 and 145; the “in vivo uptake by circulating neutrophils, Ctrl, raw data” value was 400 and 394 and 676 and 677 and 545. In addition, in series [3] (setting [5]), the “in vivo uptake by circulating lymphocytes, LPS, raw data” value was 38.8 and 38.9 and 26.2; the “in vivo uptake by circulating monocytes, LPS, raw data” value is 150 and 223 and 453; the “in vivo uptake by circulating neutrophils, LPS, raw data” value is 3695 and 4794 and 6465.
